Source: patent US10787424B2, “Oxopiperazine helix mimetics for control of Hypoxia-Inducible gene expression” (NEW YORK UNIVERSITY, priority 2014, dated 2020)
Read-outs that look alike come from different tables or passages of the source.

Key:
[1] = test system: triple-negative breast cancer cell line MDA-MB-231 xenograft; settings: MDA-MB-231 mouse xenograft; earlier study; cited from earlier work
[2] = biological target: T1, human p300 CH1 domain (p300-CH1) (Homo sapiens, UniProt Q09472); assay: Tryptophan fluorescence binding assay for p300-CH1
T1 construct: human p300 CH1 domain (amino acid residues 323-423); GST (N, cleaved yes); made in house; host or cells: E. coli BL21(DE3)
Text: The DNA sequence of the human p300 CH1 domain (amino acid residues 323-423) was subcloned into a pUC57 plasmid by Genscript, Inc. After transformation of JM109 bacteria (Promega) with the plasmid, it was amplified and purified. Then the gene of interest was subcloned between BamHI and EcoRI restriction sites of pGEX-4T-2 expression vector (Amersham).
The pGEX-4T-2-p300 fusion vector was transformed into BL21(DE3) competent E.coli (Novagen) in M9 minimal media with ^15NH4Cl as the primary nitrogen source. Protein production was induced with 1 mM IPTG at OD600 of 1 for 16 hours at 15° C. Production of the desired p300-CH1-GST fusion product was verified by SDS-PAGE. Bacteria were harvested and resuspended in the lysis buffer with 20 mM Phosphate buffer (Research Products International, Corp.), 100 μM DTT (Fisher), 100 μM ZnSO4 (Sigma), 0.5% TritonX 100 (Sigma), […] Pepstatin A (Research Products International, Corp.), […] Leupeptin A (Research Products International, Corp.), 500 μM PMSF (Sigma), and 0.5% glycerol at pH 8.0. Pellets were lysed by sonication and centrifuged at 4° C. and 20,000 rpm for 20 minutes. Fusion protein was collected from the bacterial supernatant and purified by affinity chromatography using glutathione Sepharose 4B beads (Amersham) prepared according to the manufacturer's directions. GST-tag was cleaved by thrombin and protein was eluted from resin. Collected fractions were assayed by SDS-PAGE gel; pooled fractions were treated with protease inhibitor cocktail (Sigma) and against a buffer containing 10 mM Tris, 50 mM NaCl, 2 mM DTT (Fisher), and 3 equivalents ZnSO4 at pH 8.0 to ensure proper folding (vide supra).
Relative affinities of OHMs for p300-CH1 were determined using a tryptophan fluorescence binding assay. Spectra were recorded on a QuantaMaster 40 spectrofluorometer (Photon Technology International) in a 10 mm quartz fluorometer cell at 25° C. with 4 nm excitation and 4 nm emission slit widths from 200 to 400 nm at intervals of 1 nm/s. Samples were excited at 295 nm and fluorescence emission was measured from 200-400 nm and recorded at 335 nm. OHM stock solutions were prepared in DMSO. Aliquots containing 1 μL DMSO stocks were added to 400 μL of 1 μM p300-CH1 in 50 mM Tris and 100 μM NaCl (pH 8.0). After each addition, the sample was allowed to equilibrate for 5 minutes before UV analysis. Background absorbance and sample dilution effects were corrected by titrating DMSO into p300-CH1 in an analogous manner. Final fluorescence is reported as the absolute value of [(F1-F0)/F1]*100, where F1 is the final fluorescence upon titration, and F0 is the fluorescence of the blank DMSO titration. EC50 values for each peptide were determined by fitting the experimental data to a sigmoidal dose-response nonlinear regression model in GraphPad Prism 5.0, and the dissociation constants, KD, were obtained from equation (2). KD=(RT×(1−FSB)+LST×FSB^2)/FSB−LST (2)
where: • RT=Total concentration of p300-CH1 • LST=Total concentration of fluorescent peptide • FSB=Fraction of bound fluorescent peptide Results and Discussion of Examples 1-8

p300-CH1 domain = biological target: T2, p300-CH1 domain (Homo sapiens, UniProt Q09472); settings: 15N-labeled CH1; earlier study; cited from earlier work
T2 construct: human p300 CH1 domain (amino acid residues 323-423); GST (N, cleaved yes); made in house; host or cells: E. coli BL21(DE3)

[3] = test system: over 28,000 transcripts (genome-wide off-target regulation); settings: microarray gene expression profiling; earlier study; cited from earlier work
HIF signaling = settings: cell culture, at micromolar levels; earlier study; cited from earlier work
[4] = binding affinity for p300-CH1, intrinsic tryptophan fluorescence assay (Table 8), read-out: Kd

T1 sequence (Q09472 323-423): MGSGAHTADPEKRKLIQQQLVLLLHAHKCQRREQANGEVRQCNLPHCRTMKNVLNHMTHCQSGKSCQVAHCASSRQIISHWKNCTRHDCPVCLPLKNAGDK
T2 sequence (Q09472 323-423): as above

In the case of CC(C)C[C@@H]1NCCN([C@@H](CC(C)C)C(=O)N2CCN([C@@H](CCC(N)=O)C(N)=O)C(=O)[C@@H]2C)C1=O [OHM 21, LLAQ-NH2], the “effect on tumor levels” value [1] is given as “reduced tumor levels”, the Kd [2, 4] is given as 530 ± 140 nM and the “HSQC resonance shifts on addition of compound” value (p300-CH1 domain) is given as “consistent shifts in resonances of residues corresponding to the HIF1α816-824 binding pocket”. The “specificity on genome-wide scale” value [3] was “remarkably specific” and the “downregulation of HIF signaling” value (HIF signaling) was “efficiently downregulated HIF signaling”.
For CC(C)C[C@@H]1NCCN([C@@H](C)C(=O)N2CCN([C@@H](CCC(N)=O)C(N)=O)C(=O)[C@@H]2C)C1=O [OHM 22, LAAQ], the Kd [2, 4] was greater than 10000 nM and the Kd ([2]; p300-CH1, text value, read-out: Kd for p300-CH1) was greater than 30000 nM.
In the case of CCCC[C@@H](C(=O)N1CCN([C@@H](CCC(N)=O)C(N)=O)C(=O)[C@@H]1C)N1CCN[C@@H](CC(C)C)C1=O [OHM 23, L(Nle)AQ], the Kd [2, 4] is reported as 30 ± 10 nM, the Kd ([2]; cross-specificity, p300-CH1 (Table 9), read-out: p300 Kd) is reported as 30 ± 10 nM and the “enhancement in binding affinity over parent OHM 21” value ([2]; p300, relative to OHM 21) is reported as 13 fold.
Work on CC(C)CC[C@@H]1NCCN([C@@H](CCC(C)C)C(=O)N2CCN([C@@H](CCC(N)=O)C(N)=O)C(=O)[C@@H]2C)C1=O [OHM 25, (Hle)(Hle)AQ] yielded a Kd [2, 4] of 160 ± 60 nM.
In the case of CC(C)C[C@@H]1NCCN([C@@H](CC(C)C)C(=O)N2CCN([C@@H](C)C(N)=O)C(=O)[C@@H]2C)C1=O [OHM 26], the Kd [2, 4] is reported as 620 ± 270 nM.
With C[C@@H]1NCCN([C@@H](C)C(=O)N2CCN([C@@H](C)C(N)=O)C(=O)[C@@H]2C)C1=O [OHM 27] the Kd [2, 4] was greater than 10000 nM.
